In US7146204B2, “Method and apparatus for quantitatively evaluating a kidney” (Yeda Research and Development Co., Ltd., priority 2002, dated 2006):
“Also recorded” adds a separate entry of the source.

Legend:
[1] = urine sodium concentration by 23Na NMR spectroscopy; format: in vivo, rat; settings: urine collected from 15 min after injection, n=3
Method: (§1) Mannitol solution (20%, 1 ml) and saline solution (0.9% NaCl, 1 ml) were injected as a bolus into the tail vein. Only one diuretic was injected into each rat.
Urine sodium: Urine samples of untreated (control) and diuretic rats were collected in a metabolic cage. Collection of the urine from the diuretic rats started 15 minutes after injection of the diuretic, when the urine flow was constant. The urine samples were then centrifuged, and the supernatants transferred to a 5 mm NMR tube placed in the center of a 10 mm NMR tube. The external tube was used as an external reference, and contained a solution of 120 mM NaCl and 5 mM of the shift reagent: thulium (III) 1,4,7,10-tetraacyclododecane-1,4,7,10-tetrakis (methylene phosphonate) (TmDOTP^5−) (Macrocyclics, Dallas, Tex., USA) reaching total [Na^+] of 150 mM. ^23Na NMR spectra were recorded with a Bruker DMX-400 spectrometer (Bruker, Rheinstetten, Germany), using a multinuclei broad band probe at 106 MHz by acquiring 10 transients with 90° pulses, pulse-to-acquisition time of delay (DE) of 6 μs, 0.47 sec repetition time (TR) and 0.27 sec acquisition time. Analysis of the ^23Na spectra was performed with an XWIN-NMR Bruker software package. Sodium concentration in the urine was calculated from the integrated area of its signal referenced to the integrated area of the shifted signal of the sodium in the external tube solution (150 mM).

[2] = tested on: rat kidney; test: steady state diuresis 23Na MRI of corticomedullary sodium gradient; format: in vivo; settings: for reduction in sodium content in the inner medulla (summary statement): after bolus injection; for change of the cortical-outer medullar sodium gradient versus control / cortical-outer medullar sodium gradient (slope): pixel-by-pixel analysis
Method: Materials and Methods—Animals: Studies were performed on female Lewis rats, 2–4 months old and weighing 250–300 g, that had free access to food and water. Before MRI scanning, the rats were anesthetized by an intraperitoneal injection of sodium pentobarbital at a dosage of 0.04 mg/g body wt. All animal protocols and maintenance procedures were in accordance with the guidelines of the Committee on Animals of the Weizmann Institute of Science, and were approved by this Committee.
as §1
In vivo MRI: ^1H and ^23Na spectra and images were recorded at 200 and 53 MHz, respectively with a 4.7 T Biospec spectrometer (Bruker, Rheinstetten, Germany) using a home-built 3 cm double-tuned surface coil. The rat was placed on the coil in a supine position, keeping the estimated kidney position approximately in the middle of the coil. 3D ^1H gradient echo images were recorded to localize the exact kidney position, using TE/TR of 6/30 ms FOV of 12×12×3.2 cm and a matrix of 256×256×32. For defining the regions of interest (ROI), 3D ^1H images were recorded with the same spatial resolution as that of the sodium images.
In the “steady state” studies, sodium images were recorded prior to injection of the diuretic (control measurement) and fifteen minutes after its injection. 3D ^23Na gradient echo images were recorded using a TE/TR of 3.1/60 ms and a 90° OSIRREAD adiabatic pulse, FOV of 12×12×8 cm, and a matrix of 128×128×16 with 10 or 20 scans (20 or 40 min, respectively).
Image analysis: Analysis of the kidney images was performed on selected regions of interest (ROIs) in the outer, median and inner parts of the kidney, representing the cortex, outer and inner medulla, respectively. The ROIs were defined on the corresponding coronal proton image recorded prior to the sodium images, at the same spatial resolution. The average digitized pixel intensity for each ROI was measured, and the sodium gradient was assessed by averaging the ratio of the sodium signal intensity between the inner and the outer medulla, and between the inner medulla and the cortex.
In addition, a pixel-by-pixel analysis was performed, in order to assess the behavior of the NMR sodium signal along the corticomedullary axis. In this analysis, the signal intensity in each pixel was measured from the cortex to the inner medulla along the corticomedullary axis. This yielded a graph of pixel signal intensity versus the distance of the pixel from the cortex. In the dynamic study, the average signal intensities of the inner medulla and the cortex ROIs, defined on the proton image, were measured in sodium images recorded sequentially and were then plotted against time.
Statistical analysis to evaluate differences between pixels or ROIs in the same kidney, or before and after diuretic treatment, were performed by a two-tailed paired Student's t-test; otherwise, the unpaired version of this test was used. Results are presented as mean±SEM.
In-vivo MRI: ^1H and ^23Na images and spectra were recorded at 200 and 53 MHz respectively with a 4.7 T Biospec spectrometer (Bruker, Karlsrhue, Germany) using a home built 3-cm, ^1H and ^23Na tuned surface coil. The rat was placed on the coil in a supine position with the kidney positioned in the middle of the coil. Axial and coronal 3D ^1H gradient echo images were recorded for localization of the kidney using an echo time/repetition time (TE/TR) of 6/30 ms FOV of 12×12×3.2 cm and matrix of 256×256×32. 3D gradient echo ^23Na images were recorded using (TE/TR) of 1.7/60 ms and a 90° OSIRREAD adiabatic pulse, field of view (FOV) of 12×12×8 […], and matrix of 128×128×16, with 20 scans (40 min).
The sodium image was analyzed by a pixel by pixel analysis that was performed in order to assess the behavior of the NMR sodium signal along the corticomedullary axis.

[3] = tested on: rat kidney; test: dynamic 23Na MRI of renal sodium distribution after bolus injection of diuretic; format: in vivo; settings: for characteristic time constant of sodium decay in the inner medulla: dynamic 23Na MRI after bolus injection, fitted to Equation 1, n=7; for decrease in sodium level in the inner medulla: relative to pre-treatment, diuresis steady state level, n=7
Method: Materials and Methods—Animals: Studies were performed on female Lewis rats, 2–4 months old and weighing 250–300 g, that had free access to food and water. […] All animal protocols and maintenance procedures were in accordance with the guidelines of the Committee on Animals of the Weizmann Institute of Science, and were approved by this Committee. […] Only one diuretic was injected into each rat. […] Image analysis: Analysis of the kidney images was performed on selected regions of interest (ROIs) in the outer, median and inner parts of the kidney, representing the cortex, outer and inner medulla, respectively. The ROIs were defined on the corresponding coronal proton image recorded prior to the sodium images, at the same spatial resolution. The average digitized pixel intensity for each ROI was measured, and the sodium gradient was assessed by averaging the ratio of the sodium signal intensity between the inner and the outer medulla, and between the inner medulla and the cortex. […] In this analysis, the signal intensity in each pixel was measured from the cortex to the inner medulla along the corticomedullary axis. This yielded a graph of pixel signal intensity versus the distance of the pixel from the cortex. In the dynamic study, the average signal intensities of the inner medulla and the cortex ROIs, defined on the proton image, were measured in sodium images recorded sequentially and were then plotted against time. Statistical analysis to evaluate differences between pixels or ROIs in the same kidney, or before and after diuretic treatment, were performed by a two-tailed paired Student's t-test; otherwise, the unpaired version of this test was used. Results are presented as mean±SEM.

[4] = tested on: rat kidney; test: steady state diuresis 23Na MRI of corticomedullary sodium gradient; format: in vivo; settings: mannitol (1 ml, 0.1N), n=7
[5] = steady state diuresis, furosemide 10 mg/kg body wt, n=7

## NS(=O)(=O)c1cc(C(=O)O)c(NCc2ccco2)cc1Cl [furosemide]
[1]
  increase of urine sodium concentration compared to the control: 50±5%
[2]; diuretic steady state
  reduction in sodium content in the inner medulla (summary statement): 50%
[2]; diuresis steady state
  change of the cortical-outer medullar sodium gradient versus control: five-fold reduction
[2]; diuresis steady state, n=7
  cortical-outer medullar sodium gradient (slope): 0.10±0.01 a.u.×mm^−1
[2]; furosemide steady state diuresis, 10 mg/kg wt, n=7
  cortico-outer medullar sodium gradient during furosemide diuresis: 0.10±0.01 a.u×mm^−1
[2]; steady state diuresis
  effect on the corticomedullary sodium gradient: almost completely cancelled; also recorded: almost complete cancellation
[2]; steady state diuresis, furosemide 1 mg/kg body weight, n=3
  decrease in sodium signal intensity in the inner medulla: 10±2%
[2]; steady state diuresis, furosemide 7 mg/kg body weight, n=4
  decrease in sodium signal intensity in the inner medulla: 40±4%
[2]; [5]
  decrease of average sodium signal intensity in the inner medulla: 47±5%
  decrease of average sodium signal intensity in the outer medulla: 6±2%
  increase of average sodium signal intensity in the cortex: 25%±3%
[3]
  characteristic time constant of sodium decay in the inner medulla: 6.1 ± 0.8 min
[3]; dynamic study
  decrease in sodium level in the inner medulla: 44±6%

## OC[C@@H](O)[C@@H](O)[C@H](O)[C@H](O)CO [mannitol]
[1]
  decrease of urine sodium concentration compared to the control: 49±3%
[2]; diuretic steady state
  reduction in sodium content in the inner medulla (summary statement): 50%
  sodium concentration in the outer medulla compared to control: increased compared to control
[2]; diuresis steady state
  cortex to outer medulla sodium gradient relative to furosemide induced diuresis: fivefold higher
  change of the cortical-outer medullar sodium gradient versus control: remained similar to that seen in control kidney
[2]; diuresis steady state, n=7
  cortical-outer medullar sodium gradient (slope): 0.45±0.12 a.u.×mm^−1
[2]; diuresis steady state, listed as Mannitol
  change of the cortical-outer medullar sodium gradient versus control: did not affect
[2]; steady state diuresis
  effect on the corticomedullary sodium gradient: marked breakdown
[4]
  decrease of sodium concentration in the inner medulla: 52±1%
  increase of sodium signal intensity in the cortex: 20±2%
  increase of sodium signal intensity in the outer medulla: 13±1%
[3]
  characteristic time constant of sodium decay in the inner medulla: 2.5 ± 0.4 min
[3]; dynamic study, after bolus injection
  total increase in sodium concentration in the cortex: about 25%
[3]; dynamic study, p=0.002
  rate of sodium reduction in the inner medulla relative to furosemide: twice as rapidly; also recorded: more than twofold faster; also recorded: twofold faster decay
[3]; dynamic study
  decrease in sodium level in the inner medulla: 52±5%
